The results in this text go back to patent US11566002B2, “Substituted tetrahydrocyclopenta[C]pyrroles, substituted dihydropyrrolizines, analogues thereof, and methods using same” (priority 2018, dated 2023).

The structures appear in SMILES notation. Like-named read-outs stand apart in the source and are kept apart here.

In this assay the test system is HBV rcDNA. The assay is described as follows: HepDE19 assay with bDNA quantitation of HBV rcDNA. The assay is classed as cell-based, hepatitis B virus. As to conditions: HepDE19 cells, Tet-free medium, 7 day-incubation, rcDNA measured by Quantigene 2.0 bDNA assay, top concentration 25 μM, read-out: DE-19 bDNA EC50. An outline of the steps: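 HepDE19 cells (50,000/well) switched to Tet-free medium, then treated 7 days at 37° C with compounds from 25 μM (½-log, 8-point, duplicate; 0.5% DMSO). rcDNA quantified by bDNA with HBV probes; EC50/EC90 by 4-parameter fit. CC50 from CTG ATP on 5,000 cells/well after 4 days.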

Setting [1] is: Hepatitis B virus, HepDE19, 168 h.

For orientation: EC50 means the concentration at which the effect is half-maximal.

Take `Cn1cc2c(c1C(=O)Nc1ccc(F)c(Cl)c1)CCC2=O` [Compound 44, N-(3-chloro-4-fluorophenyl)-2-methyl-4-oxo-2,4,5,6-tetrahydrocyclopenta[c]pyrrole-1-carboxamide]: the EC50 under setting [1] was found to be 19000 nM.
Same read-out and setting: next, `Cn1cc2c(c1C(=O)Nc1ccc(F)c(Cl)c1)CCCC2=O` [Compound 45, N-(3-chloro-4-fluorophenyl)-2-methyl-4-oxo-4,5,6,7-tetrahydro-2H-isoindole-1-carboxamide]: 70 nM.
Same read-out and setting: to `Cn1cc2c(c1C(=O)Nc1ccc(F)c(Cl)c1)CCC2NC(=O)OCc1ccn(C2CCCCO2)n1` (stereo not shown) [Compound 63, (1-(Tetrahydro-2H-pyran-2-yl)-1H-pyrazol-3-yl)methyl (1-((3-chloro-4-fluorophenyl)carbamoyl)-2-methyl-2,4,5,6-tetrahydrocyclopenta[c]pyrrol-4-yl)carbamate] belongs 140 nM.
The same measure, in the same setting: to `Cn1cc2c(c1C(=O)Nc1ccc(F)c(Cl)c1)CCCCC2=O` [Compound 72, N-(3-chloro-4-fluorophenyl)-2-methyl-4-oxo-2,4,5,6,7,8-hexahydrocyclohepta[c]pyrrole-1-carboxamide] belongs 50 nM.
Take `Cn1cc2c(c1C(=O)Nc1ccc(F)c(Cl)c1)CCCCC2N` (stereo not shown) [Compound 80, 4-Amino-N-(3-chloro-4-fluorophenyl)-2-methyl-2,4,5,6,7,8-hexahydro cyclohepta[c]pyrrole-1-carboxamide]: the concentration giving a half-maximal response (EC50) under setting [1] was 1850 nM.
With `Cn1cc2c(c1C(=O)Nc1ccc(F)c(Cl)c1)CCCCC2N` (stereo not shown) [Compound 87, 4-Amino-N-(3-chloro-4-fluorophenyl)-2-methyl-2,4,5,6,7,8-hexahydro cyclohepta[c]pyrrole-1-carboxamide], the 50% effective concentration (EC50) turned out to be 1600 nM.
As for `Cn1c(C(=O)Nc2ccc(F)c(Cl)c2)c2c(c1C1CC1)C(NC(=O)OCc1nc[nH]n1)CC2` (stereo not shown) [Compound 95, (1H-1,2,4-triazol-3-yl)methyl (1-((3-chloro-4-fluorophenyl)carbamoy1)-3-cyclopropy1-2-methyl-2,4,5,6-tetrahydrocyclopenta[c]pyrrol-4-yl)carbamate], under setting [1], the concentration for a half-maximal effect (EC50) was 15000 nM.
The same measure, in the same setting: to `Cn1cc2c(c1C(=O)Nc1ccc(F)c(Cl)c1)CCC2N` (stereo not shown) [Compound 100, 4-Amino-N-(3-chloro-4-fluorophenyl)-2-methyl-2,4,5,6-tetrahydrocyclopenta[c]pyrrole-1-carboxamide] belongs 3800 nM; to `Cn1c(Cl)c2c(c1C(=O)Nc1ccc(F)c(Cl)c1)CCC2NC(=O)OCc1nc[nH]n1` (stereo not shown) [Compound 103, (1H-1,2,4-Triazol-3-yl)methyl (3-chloro-1-((3-chloro-4-fluorophenyl)carbamoyl)-2-methyl-2,4,5,6-tetrahydrocyclopenta[c]pyrrol-4-yl)carbamate], 20 nM.
As for `Cn1cnc(COC(=O)NC2CCc3c2c(C(F)(F)F)n(C)c3C(=O)Nc2ccc(F)c(Cl)c2)n1` (stereo not shown) [Compound 122], the EC50 is 450 nM.
With `Cn1cnc(COC(=O)NC2CCc3c2c(C(F)(F)F)n(C)c3C(=O)Nc2ccc(F)c(Cl)c2)n1` (stereo not shown) [Compound 123], the EC50 was found to be 8000 nM.
Still for that read-out and setting: next, `Cn1nnc(COC(=O)NC2CCc3c2cn(C)c3C(=O)Nc2ccc(F)c(Cl)c2)n1` (stereo not shown) [Compound 142, (2-Methyl-1H-tetrazol-5-yl)methyl (1-((3-chloro-4-fluorophenyl)carbamoyl)-2-methyl-2,4,5,6-tetrahydrocyclopenta[c]pyrrol-4-yl)carbamate]: 3200 nM; `Cn1nnc(COC(=O)NC2CCc3c2cn(C)c3C(=O)Nc2ccc(F)c(Cl)c2)n1` (stereo not shown) [Compound 143, (2-Methyl-1H-tetrazol-5-yl)methyl(1-((3-chloro-4-fluorophenyl)carbamoyl)-2-methyl-2,4,5,6-tetrahydrocyclopenta[c]pyrrol-4-yl)carbamate]: 70 nM.
